Measured values published in patent US8853251B2, “Ester pro-drugs of [3-(1-(1H-imidazol-4-YL)ethyl)-2-methylphenyl] methanol for treating retinal diseases” (Allergan, Inc., priority 2010, dated 2014).

Tests used:
[1] = tested on: blue light model of retinal degeneration in rats; test: The Blue Light Model of retinal degeneration; type: in vivo, rat; settings: male Sprague Dawley rats, subcutaneous infusion pumps 1 mg/kg/day starting two days before blue light (4 hours, 6100-6500 lux), OCT at 7 days post exposure
Protocol: Pro-drug iso-Butyric acid 3-[(S)-1-(1H-imidazol-4-yl)-ethyl]-2-methyl-benzyl ester is evaluated in the blue light model of retinal degeneration in rats. The drugs is administered continuously with subcutaneous infusion pumps at a dose of 1 mg/kg/day starting two days before blue light exposure. Twenty 4-month old male Sprague Dawley rats (body weight 470-550 g) were used in this study. The animals were exposed to room light on a 12 hour light/12 hour dark cycle before the experiment. All animals were dark adapted overnight (16-20 hours) before blue light. Under the intensity of 6100-6500 lux, rats were exposed to blue light for 4 hours. After the blue light, rats were placed in the dark for another 3 days before returning to normal 12 hour light/12 hour dark. Ocular Coherence Tomography (OCT) measurement was performed at 7 days post blue light exposure.

[2] = tested on: normal DB rabbits; test: Visual Enhancement Model (sweep visual evoked potential acuity); type: in vivo, rabbit; settings: pigmented (Dutch-Belted) rabbits, intravenous route, 10-30 minutes post-dose, conscious animals, bilateral recordings
Protocol: Spatial sweep visual evoked potential (sVEP) acuity is assessed with PowerDiva software version 1.8. Recordings were made bilaterally in conscious animals.

SMILES	retinal thickness measured by OCT after blue light exposure [1]	Spatial sweep visual evoked potential (sVEP) acuity [2]
Brc1c(NC2=NCCN2)ccc2nccnc12 [Brimonidine, reference compound]	did not prevent the change in retinal thickness	–
Cc1c(COC(=O)C(C)C)cccc1[C@H](C)c1c[nH]cn1 [Compound 1, iso-Butyric acid 3-[(S)-1-(1H-imidazol-4-yl)-ethyl]-2-methyl-benzyl ester]	significantly reduced the damage caused by blue light	enhances visual acuity
